Counter-ions that a name gives are not always drawn.
Tests used:
[1] = tested on: Mock-transfected HCC PLC/PRF/5 cells (Mock-TF); assay: Antitumor activity in Mock-TF tumor xenograft model in mice; assay type: in vivo, female nude mice; settings: LEN 10 mg/kg and 30 mg/kg, SOR 30 mg/kg, orally once daily; FIG. 1
From the text: (§1) Methods: Human FGF21 and Mock-transfected HCC PLC/PRF/5 cells (FGF21-TF and Mock-TF, respectively) were established by using piggy-back system. To evaluate antitumor activity against these tumors, 4.2×10^6 cells of FGF21-TF or 4.3×10^6 cells of Mock-TF were subcutaneously injected into female nude mice (Charles River, Japan) with matrigel (BD Biosciences). When tumor volumes reached approximately 200-300 mm3, mice were divided into each group according to their tumor volumes and either lenvatinib mesylate (abbreviated as LEN) (10 mg/kg and 30 mg/kg) or Sorafenib tosylate (abbreviated as SOR) (30 mg/kg) was orally administered once daily. Follow-up analysis of a HCC patient-derived xenograft (PDX)-derived tumor (LI0334 HCC PDX tumor model treated with 3 mM HCl (vehicle for lenvatinib)) assessed FGF21 expression levels by immunohistochemistry. Three μm thick sections of paraffin-embedded tumor samples were de-paraffinized and hydrated. Antigen retrieval was performed by incubation of the samples in Dako REAL Target Retrieval sol. (pH6.0) (Dako) for 30 minutes. Endogenous hydrogen peroxidase activity was blocked by incubating the slides for 10 min with 3% hydrogen peroxide. The slides were incubated overnight with primary antibody, human rabbit anti-human FGF21 (ab64857. Abcam) at 1:100 in 1% BSA/PBS at 4° C. […]

[2] = tested on: LI0334 HCC PDX tumor; settings: PDX tumor highly expressing FGF21; reported in Matsuki et al., AACR 2017; cited from earlier work
[3] = Relative body weight changes in mice with FGF21-TF and Mock-TF tumors; assay type: in vivo, female nude mice; settings: LEN 10 mg/kg and 30 mg/kg, SOR 30 mg/kg, orally once daily; FIG. 2
From the text: as §1

[4] = tested on: Human FGF21-transfected HCC PLC/PRF/5 cells (FGF21-TF); assay: Antitumor activity in FGF21-TF tumor xenograft model in mice; assay type: in vivo, female nude mice; settings: LEN 10 mg/kg and 30 mg/kg, SOR 30 mg/kg, orally once daily; FIG. 1
From the text: as §1

[5] = tested on: unresectable HCC; assay: Phase 3 study E7080-G000-304: OS and PFS by baseline serum FGF21 level; assay type: in vivo, human; settings: for MST for PFS, high FGF21 group / MST for PFS, low FGF21 group / HR for PFS, high vs low FGF21 group: PFS by RECIST 1.1 (IIR); for MST for PFS, high FGF21 group / median OS (MST), high FGF21 group: baseline serum FGF21 at or above third quartile cutoff (688 ng/L); for MST for PFS, low FGF21 group / median OS (MST), low FGF21 group: baseline serum FGF21 below third quartile cutoff (688 ng/L); for HR for PFS, high vs low FGF21 group / HR for OS, high vs low FGF21 group: univariate Cox regression, third quartile cutoff (688 ng/L); for difference of PFS (RECIST 1.1) between high and low baseline FGF21 groups: third quantile cutoff point
Experimental: E7080-G000-304 was a multicenter, randomized, open-label, noninferiority Phase 3 study to compare the efficacy and safety of lenvatinib versus sorafenib as a first-line systemic treatment in subjects with unresectable HCC. Subjects were randomly assigned in a 1:1 ratio to treatment with either lenvatinib 12 mg (baseline body weight [BW]≥60 kg) or 8 mg (baseline BW<60 kg) given once daily (QD) orally or sorafenib 400 mg given twice daily (BID) orally. Subjects were stratified by region, presence or absence of macroscopic portal vein invasion (MPVI) or extrahepatic spread (EHS) or both, Eastern Cooperative Oncology Group Performance Status (ECOG PS) 0 or 1, and BW (<60 kg or ≥60 kg). A total of 951 subjects (476 lenvatinib; 475 sorafenib) were enrolled and treated. Lenvatinib and sorafenib were self-administered by the subjects orally, at the same time each day (consistently either with or without food) in continuous 28-day cycles. Subjects received study treatment until disease progression, development of unacceptable toxicity, subject request, or withdrawal of consent.
Of the 954 subjects enrolled in the clinical study and assigned to receive lenvatinib or sorafenib, 407 subjects (42.7% of all ITT subjects, lenvatinib arm, n=279 and sorafenib arm, n=128) were included in blood serum biomarker assay.
Serum samples were collected at Day 1 of Cycle1 (pre-treatment). The serum levels of FGF21 at Day 1 of Cycle 1 (baseline level) in Samples from 279 subjects in the lenvatinib arm and 128 subjects in the sorafenib arm (total 407 subjects) were determined by enzyme-linked immunosorbent assay (ELISA). All biomarker data were transferred to study data tabulation model (SDTM) in accordance with the data transfer specification developed separately. Correlation between the serum baseline level of FGF21 and clinical outcome, such as progression free survival (PFS) was assessed. PFS was defined as the time from the date of randomization to the date of first documentation of disease progression or death.
All statistical analyses were performed by the Clinical Data Science department at Eisai Co., Ltd. (Tokyo, Japan) after the clinical study was completed and a snapshot of the database was obtained on 13 Nov. 2016. For the correlation analyses with PFS, data sets based on independent imaging review (IIR) by RECIST 1.1 were used. Statistical analyses were performed using SAS version 9.3.
For each baseline level of blood serum biomarker, correlation analysis with survival outcome measures (OS and PFS) was performed using univariate Cox regression for the lenvatinib arm and the sorafenib arm separately.
Subjects were divided into two high-low groups based on the baseline level of each blood serum biomarker. The cutoff point was third quartile. Association between the groups and survival outcome measures (OS and PFS) was explored using univariate Cox regression and the Log-rank test with the selected cutoff points.

Row | Structure (SMILES) | antitumor activity (tumor volume changes) in the Mock-TF model [1] | inhibition of the LI0334 HCC PDX tumor model [2] | body weight losses associated with tumor presence compared to non-treatment [3] | antitumor activity (tumor volume changes) in the FGF21-TF model [4] | MST for PFS, high FGF21 group [5] | MST for PFS, low FGF21 group [5] | HR for PFS, high vs low FGF21 group [5] | median OS (MST), high FGF21 group [5] [months] | median OS (MST), low FGF21 group [5] [months] | difference of PFS (RECIST 1.1) between high and low baseline FGF21 groups [5] | HR for OS, high vs low FGF21 group [5]
1 | COc1cc2nccc(Oc3ccc(NC(=O)NC4CC4)c(Cl)c3)c2cc1C(N)=O [LEN, lenvatinib mesylate] | showed antitumor activity | inhibited by LEN | Neither treatment exacerbated body weight losses | showed activity |  |  |  |  |  |  | 
2 | COc1cc2nccc(Oc3ccc(NC(=O)NC4CC4)c(Cl)c3)c2cc1C(N)=O [Lenvatinib, 4-(3-chloro-4-(cyclopropylaminocarbonyl)aminophenoxy)-7-methoxy-6-quinolinecarboxamide] |  |  |  |  | 7.5 | 8.0 | 1.184 | 10.9 | 18.0 | no clear difference of PFS | 1.745
3 | CNC(=O)c1cc(Oc2ccc(NC(=O)Nc3ccc(Cl)c(C(F)(F)F)c3)cc2)ccn1 [SOR, Sorafenib tosylate] | showed antitumor activity |  | Neither treatment exacerbated body weight losses | only LEN showed activity |  |  |  |  |  |  | 
4 | CNC(=O)c1cc(Oc2ccc(NC(=O)Nc3ccc(Cl)c(C(F)(F)F)c3)cc2)ccn1 [Sorafenib, 4-[4-[[4-chloro-3-(trifluoromethyl)phenyl]carbamoylamino]phenoxy]-N-methylpyridine-2-carboxamide] |  |  |  |  | 2.4 | 5.5 | 1.783 | 6.8 | 17.8 | short median PFS (RECIST 1.1) for high group than that of low group | 3.341
